Read-outs that look alike come from different tables or passages of the source.
Key:
[1] = test system: β-catenin nuclear translocation in SH-SY5Y cells; assay: β-catenin translocation assay; format: cell-based
Method: SH-SY5Y cells were seeded into a 96-well CellCarrier Ultra (Perkin Elmer) plate at a density of 1×10^5 cells/ml in complete DMEM. Sixteen hours following plating, media was changed to DMEM with 2% serum, and compound was added with a D300e Digital Dispenser (Tecan) for an incubation time of six hours. After compound incubation, media was removed, and cells were fixed with 4% PFA for 10 minutes at room temperature. Each well was washed three times with PBS-T and then blocked with buffer (1×PBS with 5% Normal Goat Serum and 0.3% Triton X-100) for 30 minutes at room temperature. β-Catenin primary antibody (Cell Signaling #8480) was added at 1:500 dilution in blocking buffer and the cells were allowed to incubate in primary overnight at 4° C. The following day, primary antibody was removed, each well was washed three times with PBS-T, and secondary antibody (1:2000 anti-rabbit AlexaFluor Plus 488 and 1:10,000 Hoechst 33342) was added and allowed to incubate for 60 minutes at room temperature protected from light. After one-hour, secondary antibody was removed and wells were washed four times with PBS-T before imaging on the Opera Phenix. Sixteen fields per well were imaged with a 20× water lens.
Images were quantified in the Columbus Image Data Storage and Analysis software. Cells were identified using the Hoechst nuclear stain to identify individual nuclei. Intensity of the nuclear stain was also used to determine cell viability (Viable cells <30% CV of Hoechst Intensity)

NanoLuc-GSK3α [2] = target: T1, NanoLuc-GSK3α (Homo sapiens (Human), UniProt P49840); assay: NanoBRET live-cell target engagement assay, GSK3α; format: cell-based; conditions: HEK293T cells, Tracer-8 at EC50
Method: (§1) HEK293T cells were transiently transfected with NanoLuc®-GSK3-alpha or NanoLuc®-GSK3-beta constructs using FuGene®-HD (Promega). Next day, the live cell NanoBRETTM target engagement assay was performed. […] Immediately prior to BRET measurements, NanoBRETTM Nano-Glo® Substrate and Extracellular NanoLuc® Inhibitor were added on cells and incubated for 2-3 minutes at room temperature. Donor emission at 450 nm and acceptor emission at 610 nm were measured using a EnVision plate reader. Raw BRET ratio values were calculated by dividing the acceptor emission value by the donor emission value for each sample. Raw BRET units were converted to milliBRET units (mBU) by multiplying each raw BRET value by 1000. mBU values for compound treatments were normalized to DMSO treatment. Ki values are calculated using the formula: Ki=(IC50)/(1+([Tracer]/EC50)). All experiments were performed as biological triplicates with three technical replications.
(§2) To further characterize the GSK3 inhibitor 837646, this compound was tested in a live-cell target engagement assay to investigate binding mode and residence time. […] In this assay, compound binding was quantified as loss of BRET signal from baseline due to competitive displacement of the tracer. […]

NanoLuc-GSK3α [3] = target: T1, NanoLuc-GSK3α; assay: NanoBRET residence time, GSK3α; format: cell-based; conditions: inhibitor at 10× IC50, BRET every 5 min for 3 hours
human GSK3β = human GSK3β (Homo sapiens (Human), UniProt P49841); assay: pThr231 tau phosphorylation plate-based assay in HEK-huTau cells transfected with GSK3β; format: cell-based; conditions: for IC50: HEK-huTau cells transfected with human GSK3β, 10-point dose response, 2 hours, read-out: GSK3β IC50 (inhibition of pThr231)
Method: (§3) HEK293 or SH-SY5Y cells were obtained from American Type Culture Collection (ATCC, Manassas, VA) and cultured in Dulbecco's modified Eagle's medium (DMEM) supplemented with 10% fetal bovine serum (FBS), 10 units/ml penicillin, and 10 μg/ml streptomycin (all reagents were purchased from Gibco, Waltham, MA). Cell cultures were maintained in a humidified 5% (v/v) CO2/air environment at 37° C. When the cells reached 50-80% confluence, they were transfected with a complex consisting of a 3:1 ratio of FuGENE 6 Transfection Reagent (Promega, Madison, WI) and plasmid DNA. Plasmid DNA was balanced out across reactions using an empty plasmid so that the same amount of DNA was added per well. This transfection complex was prepared following the manufacturers protocol and added directly to the cell media for 24 or 48 hours prior to lysis.
(§4) 293T cells stably expressing human 2N4R Tau were transfected with appropriate cDNA plasmids. 24 hours following transfection cells were treated with compound in a 10-point dose-response (from 1000× stocks of compound) and lysates harvested 2 hours later with cell extraction buffer (Life Technologies Cat #BN0001) or RIPA Buffer with Halt protease/phosphatase inhibitors added.
(§5) For pThr231 assay: Lysate was diluted 1:100 in assay buffer and Total Tau and pTau T231 was assessed by plate-based ELISA as per manufacturer instructions (MSD Cat #K15121D-1). Total fluorescence was measured using an Envison plate reader.
(§6) To test the potency and isoform selectivity of GSK3 small molecule inhibitors, HEK-huTau cells were transfected with plasmids containing either human GSK3α or GSK3β. Twenty-four hours after transfection, compounds were added at a 10-point dose response curve (at a range of 30 μM-3 nM) for a total of 2 hours, and cell lysates were probed for total tau and pThr231 using a plate-based assay.

[4] = target: GSK3b (GST-full length GSK3b) (Homo sapiens (Human), UniProt P49841); assay: GSK3b TR-FRET kinase assay; format: biochemical
How it was run: (§7)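 Readout: anti-pSer641 Tb antibody/streptavidin-d2 signal after 60 min, expressed as 665/615 ratio and fitted versus log concentration for IC50. Enzyme: 1 nM GST-GSK3 (α or β), compound-preincubated 30 min. Conditions: pH 7.5 Tris buffer with MgCl2, DTT, BSA; ATP at 4 or 2 μM, or 1 mM; 100 min.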

[5] = target: GSK3α (GST-full length GSK3α) (Homo sapiens (Human), UniProt P49840); assay: GSK3α TR-FRET kinase assay; format: biochemical
How it was run: as §7

NanoLuc-GSK3β = NanoLuc-GSK3β (Homo sapiens (Human), UniProt P49841); assay: NanoBRET live-cell target engagement assay, GSK3β; format: cell-based; conditions: HEK293T cells, Tracer-8 at EC50
Method: as §1, §2

GSK3α = GSK3α (Homo sapiens (Human), UniProt P49840); assay: pThr231 tau phosphorylation plate-based assay in HEK-huTau cells transfected with GSK3α; format: cell-based; conditions: for IC50: HEK-huTau cells transfected with human GSK3α, 10-point dose response, 2 hours, read-out: GSK3α IC50 (inhibition of pThr231); for selectivity for GSK3α over GSK3β: pThr231 HEK-huTau assay, GSK3β IC50 / GSK3α IC50
Method: as §3, §4, §5, §6

[6] = 1 nM GSK3b, 2 μM ATP, 30 minute preincubation, Table 16, read-out: GSK3-B TR-FRET BIOCHEMICAL (TR-FRET)
[7] = 1 nM GSK3α, 4 μM ATP, 30 minute preincubation, Table 16, read-out: GSK3-A TR-FRET BIOCHEMICAL (TR-FRET)

Sequence of GSK3b (GST-full length GSK3b) (P49841 whole entry): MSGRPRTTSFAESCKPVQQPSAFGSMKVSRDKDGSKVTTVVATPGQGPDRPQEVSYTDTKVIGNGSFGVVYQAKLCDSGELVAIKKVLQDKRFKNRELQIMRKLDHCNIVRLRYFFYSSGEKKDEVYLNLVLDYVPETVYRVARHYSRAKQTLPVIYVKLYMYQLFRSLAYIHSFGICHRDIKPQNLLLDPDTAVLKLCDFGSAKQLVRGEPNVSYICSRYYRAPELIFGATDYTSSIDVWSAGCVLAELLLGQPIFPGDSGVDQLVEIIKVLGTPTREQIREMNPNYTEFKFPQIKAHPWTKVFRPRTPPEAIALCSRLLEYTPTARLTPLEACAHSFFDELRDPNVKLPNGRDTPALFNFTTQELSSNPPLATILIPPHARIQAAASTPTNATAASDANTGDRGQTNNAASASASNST
Sequence of human GSK3β (P49841 whole entry): as above
Sequence of GSK3α (P49840 whole entry): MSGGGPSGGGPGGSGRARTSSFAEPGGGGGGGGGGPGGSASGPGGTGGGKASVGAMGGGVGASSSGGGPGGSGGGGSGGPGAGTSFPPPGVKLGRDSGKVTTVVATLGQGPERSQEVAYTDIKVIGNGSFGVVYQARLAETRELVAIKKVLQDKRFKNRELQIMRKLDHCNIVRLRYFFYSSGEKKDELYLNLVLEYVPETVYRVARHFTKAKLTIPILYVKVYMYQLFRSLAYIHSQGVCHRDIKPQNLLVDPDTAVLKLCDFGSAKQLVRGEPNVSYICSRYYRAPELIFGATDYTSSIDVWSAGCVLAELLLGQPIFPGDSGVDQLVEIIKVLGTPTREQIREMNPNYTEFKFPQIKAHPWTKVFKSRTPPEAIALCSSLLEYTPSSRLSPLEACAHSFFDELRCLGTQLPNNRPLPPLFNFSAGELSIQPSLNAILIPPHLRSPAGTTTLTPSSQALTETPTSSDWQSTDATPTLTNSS
Sequence of GSK3α (GST-full length GSK3α) (P49840 whole entry): as above
T1 sequence (P49840 whole entry): as above
Sequence of NanoLuc-GSK3β (P49841 whole entry): as the sequence (P49841 whole entry) above

| binding mode (competitive displacement of tracer), GSK3α (NanoLuc-GSK3α [2]) | residence time at GSK3α (NanoLuc-GSK3α [3]) | IC50 (human GSK3β) | IC50 [4, 6] | IC50 ([4]; GSK3-B (TR-FRET 1 mM ATP), GMean, IC50, 1 mM ATP, geometric mean) | IC50 [5, 7] | IC50 ([5]; GSK3-A (TR-FRET 1 mM ATP), GMean, IC50, 1 mM ATP, geometric mean) | binding mode (competitive displacement of tracer), GSK3β (NanoLuc-GSK3β) | IC50 (GSK3α) | selectivity for GSK3α over GSK3β (GSK3α) | IC50 ([1]; Homo sapiens, SH-SY5Y cells, 6 hours) | IC50 ([4]; read-out: GSK3-B (TR-FRET 1 mM ATP), GMean, IC50, 1 mM ATP, geometric mean) | IC50 ([5]; read-out: GSK3-A (TR-FRET 1 mM ATP), GMean, IC50, 1 mM ATP, geometric mean) | Compound | β-catenin nuclear translocation (in words) ([1]; SH-SY5Y cells) | window between potency on tau phosphorylation by GSK3α and concentrations affecting β-catenin stabilization ([1]; HEK-huTau GSK3α vs SH-SY5Y β-catenin) | toxicity of compound in HEK-huTau assay (doses) (human GSK3β; GSK3β IC50 undetermined due to toxicity) |
| --- | --- | --- | --- | --- | --- | --- | --- | --- | --- | --- | --- | --- | --- | --- | --- | --- |
| ATP-competitive and direct GSK3 binders | significantly longer residence times | 1400 nM | ≤ 100 nM | 100 to 1000 nM | ≤ 100 nM | ≤ 100 nM | ATP-competitive and direct GSK3 binders | 61 nM | 23 fold |  |  |  | CCC1(c2cccc(-c3cn(C)nc3C)c2)C2=C(Nc3n[nH]cc31)C(F)C(C)(C)CC2=O (single isomer, unassigned) [Compound 947651, 4-(3-(1,3-dimethyl-1H-pyrazol-4-yl)phenyl)-4-ethyl-8-fluoro-7,7-dimethyl-2,4,6,7,8,9-hexahydro-5H-pyrazolo[3,4-b]quinolin-5-one] | nuclear translocation of β-catenin occurred at concentrations in which both GSK3 paralogs are being inhibited |  |  |
|  |  |  |  |  |  |  |  |  |  | 3000 nM |  |  | N#Cc1ccc2[nH]c(O)c(-c3ccc(CN4CCOCC4)cn3)c2c1 [AZ1080, AZD1080, reference compound] |  |  |  |
|  |  |  |  |  |  |  |  |  |  |  |  |  | CC[C@@]1(c2ccccc2)C2=C(CC(C)(C)CC2=O)Nc2[nH]ncc21 [BRD0705, reference compound] |  | > 5 fold | > 30 µM |
| ATP-competitive and direct GSK3 binders | significantly longer residence times | 1000 nM | ≤ 100 nM |  | ≤ 100 nM |  | ATP-competitive and direct GSK3 binders | 96 nM | 11 fold |  | 100 to 1000 nM | ≤ 100 nM | CCC1(c2cccc(-c3c(F)cncc3OC)c2)C2=C(Nc3n[nH]cc31)C(F)C(C)(C)CC2=O (stereo not shown) [Compound 948546, 4-ethyl-8-fluoro-4-(3-(3-fluoro-5-methoxypyridin-4-yl)phenyl)-7,7-dimethyl-2,4,6,7,8,9-hexahydro-SH-pyrazolo[3,4-b]quinolin-5-one] | nuclear translocation of β-catenin occurred at concentrations in which both GSK3 paralogs are being inhibited |  |  |
